# Numbers after ± are expanded uncertainties.
# How the values were obtained:
# [1] = 298.15 K; 101.33 kPa; Liquid
# [2] = refractive index (Na D-line) (dimensionless); settings: 298.15 K; 101.33 kPa; Liquid; Standard Abbe refractometry
mass density [1] [kg/m3],refractive index [2],Structure (SMILES)
943.87 ± 0.26,1.4279 ± 0.0007,CN(C)C=O [dimethylformamide]
1129.11 ± 0.4,1.4463 ± 0.0007,NC=O [formamide]

# More lines, now with the values behind:
Structure (SMILES),mass density [1] [kg/m3],refractive index [2]
"CC(=O)N(C)C [N,N-dimethylethanamide]",936.44 ± 0.13,1.4362 ± 0.0007
CNC=O [N-methylformamide],998.97 ± 0.39,1.4303 ± 0.0007
CC(C)=O [acetone],784.59 ± 0.24,1.3564 ± 0.0007
C[S+](C)[O-] [dimethyl sulfoxide],1095.66 ± 0.15,1.4771 ± 0.0007

# Source: the NIST ThermoML archive (doi:10.1016/j.jct.2008.05.010)
